In patent US4681091A, “Combination modality cancer therapy” (priority 1985, dated 1987):
Where two headings read alike, the source gives them in different places.

Legend:
[1] = tested on: bacterial cells (salmonella typhimurium TM677); conditions: salmonella typhimurium tm677, 0 h, 200 µM
in vitro = conditions: salmonella typhimurium tm677, N/No (toxicity)
[2] = tested on: bacterial cells (salmonella typhimurium TM677)
mammalian cell culture [3] = conditions: for 1 hour Aerobic Cytotoxicity: aerobic mammalian cell culture; for 1 hour hypoxic cytotoxicity: hypoxic mammalian cell culture
mammalian cell culture [4] = test: cells
Excerpt: Immediately after addition of the drug to the culture media, the petri dishes containing the cells are placed into aluminium chambers which are then degassed and purged with nitrogen to produce hypoxia. The degassing/back-filling cycle is repeated two times and the cells are irradiated with cobalt-60 gamma rays in the aluminium chambers at the end of the two hours. Control, un-irradiated cell cultures are exposed to the drug in various concentrations to assess drug cytotoxicity. Immediately following irradiation the cells are removed from the petri dishes using trypsin enzyme for 6 minutes, pipetted into single cell suspensions, and serially diluted for subculturing in triplicate petri dishes containing 5 cc of fresh culture media without the test compound. These dishes are incubated in 5% CO2 at 37° C. for 10 days and, following staining, the colonies are counted to produce survival curves (surviving fraction of cells versus compound concentration or radiation dose). As in the bacterial radiosensitization tests, baseline curves for irradiation of the mammalian cells under oxic and hypoxic conditions in the absence of the compound are also determined to allow a quantitative estimation of the efficiency of the compound in sensitizing the cells to radiation-induced killing by deriving enhancement ratios.
In FIG. 3, the dotted line represents the standard or average reported misonidazole response. The symbols " " and ` ` represent experimental misonidazole response and the experimental Rh compound response respectively.

O=[N+]([O-])[Rh-3]([N+](=O)[O-])([N+](=O)[O-])([N+](=O)[O-])([N+](=O)[O-])[N+](=O)[O-].[K+].[K+].[K+] [Compound 2, potassium hexanitrorhodium (III)]
N/No (toxicity) [1]: 1
viability at 0 h, 200 µM (in vitro): 100%
viability at 0.5 h, 200 µM (in vitro): 105%
improvement for cell-kill (N/No), sensitised vs unsensitised cells [2]: dramatic improvement for cell-kill (N/No)

NCCN.NCCN.[Cl-].[Cl-].[Cl-].[Cl-].[Cl-].[Cl-].[Cl-].[Cl-].[NH3+]CC[NH3+].[Rh+3].[Rh+3] [[RhenCl4]2 [enH2]]
1 hour Aerobic Cytotoxicity (mammalian cell culture [3]; 100 µM): 78.0%
1 hour Aerobic Cytotoxicity (mammalian cell culture [3]; 1000 µM): 61.0%
1 hour Aerobic Cytotoxicity (mammalian cell culture [3]; 10000 µM): 6.1%
1 hour hypoxic cytotoxicity (mammalian cell culture [3]; 100 µM): 95%
1 hour hypoxic cytotoxicity (mammalian cell culture [3]; 330 µM): 83.6%
1 hour hypoxic cytotoxicity (mammalian cell culture [3]; 1000 µM): 62.7%
1 hour hypoxic cytotoxicity (mammalian cell culture [3]; 3300 µM): 22%
1 hour hypoxic cytotoxicity (mammalian cell culture [3]; 10000 µM): < 1%
aerobic (oxic) response (mammalian cell culture [4]; FIG. 3, aerobic (oxic)): effectively zero
effectiveness compared with misonidazole (mammalian cell culture [4]; from concentrations giving ser 1.6): 75%

COCC(O)Cn1ccnc1[N+](=O)[O-] (stereo not shown) [misonidazole, reference compound]
EC (SER 1.6) (mammalian cell culture [4]; read-out: C1.6: concentration required to give an ser (sensitizer enhancement ratio) of 1.6): 1500 µM

[O-2].[O-2].[O-2].[Rh+3].[Rh+3] [rhodium oxide]
toxicity, water solubility or sensitisation effect (combined statement) [2]: either too toxic, not soluble in water or failed altogether to show a sensitisation effect

[Cl][Rh]([Cl])[Cl] [rhodium trichloride]
toxicity, water solubility or sensitisation effect (combined statement) [2]: either too toxic, not soluble in water or failed altogether to show a sensitisation effect

CCCC[N+](CCCC)(CCCC)CCCC.[C-]#[O+].[C-]#[O+].[Cl-].[Cl-].[Rh+] [tetra-n-butylammoniumdicarbonyldichlororhodium (I)]
toxicity, water solubility or sensitisation effect (combined statement) [2]: either too toxic, not soluble in water or failed altogether to show a sensitisation effect

dichlorobis (ethylenediamine) rhodium (III) [Compound 3]
improvement for cell-kill (N/No), sensitised vs unsensitised cells [2]: dramatic improvement for cell-kill (N/No)
